Source: PMC8619920, “New Polyesterified Ursane Derivatives from Leaves of Maesa membranacea and Their Cytotoxic Activity” (Molecules, 2021)

What was measured:
[1] = test system: HaCaT human immortalized keratinocytes; assay: Cytotoxicity, LDH assay, HaCaT cells; assay type: cell-based; details: Homo sapiens, HaCaT; 24 h treatment, 5–100 μg/mL
Method: (§1) Cytotoxic activity was tested on human cancer and normal cells, grouped in three panels, namely: prostate, skin and gastrointestinal. The prostate panel consisted of prostate cancer cell lines Du145 (ATCC HTB-81) and PC3 (ATCC CRL-1435), and prostate epithelial cells PNT-2 (ECACC 95012613). Melanoma cell lines A375 (ATCC CRL-1619) and HTB140 (ATCC Hs 294T) together with skin keratinocytes HaCaT (obtained as a kind gift of prof. Marta Michalik, Department of Cell Biology, Jagiellonian University, Kraków, Poland) were included into the skin panel. The gastrointestinal panel of cells comprised colon cancer cell lines Caco-2 (ATCC HTB-37) and HT29 (ATCC HTB-38). Du145 cells were grown in Modified Eagle’s Medium with low (1.0 g/L) glucose concentration, HT29, PC3 and PNT-2 cells in Dulbecco’s Modified Eagle’s Media: F12 HAM Nutrient Mixture, Caco-2 in Modified Eagle’s Medium with NEAA (no-essential amino acids) while melanoma cells and keratinocytes were maintained in Modified Eagle’s Medium with high (4.5 g/L) glucose concentration. The culture media (all supplied by Sigma-Aldrich Co.; St. Louis, MO, USA) contained antibiotics and 10% fetal bovine serum (FBS). All cultures were maintained at 37 °C, in a humidified, 5% CO2 containing, atmosphere.
(§2) The examined triterpenes were diluted in the culture media from freshly made stock solutions in MeOH (10 mg/mL) to the working concentrations (from 0 to 100 μg/mL).
(§3) Cell viability was determined as it was described previously. Cells suspended in the nutrient medium were transferred into 96-well microtiter plates (density 1.5 × 10^4 per well), and preincubated for 24 h (37 °C, 5% CO2). Then, the culture medium was replaced with the medium containing different concentrations of 1 or 2 (1–100 μg/mL). After 24 h of incubation, viability of the cells was determined using colorimetric lactate dehydrogenase (LDH) assay, in comparison to the controls to which corresponding aliquots of MeOH diluted with culture media were added. Cells grown in the medium without the tested compounds were used as control I (negative) and the positive control (control II) was obtained by incubation of the cells in the medium containing 1% Triton X-100. LDH released from the damaged cells into the cell culture medium was quantified by measuring the absorbance at 490 nm using Synergy II Biotek (BioTek Instruments, Winooski, VT, USA) microplate reader. Cytotoxicities of the examined compounds were calculated as follows: [(absorbance of the tested sample − absorbance of control I)/(absorbance of control II − absorbance of control I)] × 100. Results were means of three independent measurements (± SD). Doxorubicin (Ebewe Pharma GmbH., Unterach, Austria) was used as a reference cytostatic drug. The IC50 values were determined by plotting the percentage viability of the cells versus concentration and the adequate calculations made using AAT Bioquest website program (https://www.aatbio.com/tools/ic50-calculator, accessed on 29 October 2021).

[2] = test system: Caco-2 human colon adenocarcinoma cells; assay: Cytotoxicity, LDH assay, Caco-2 cells; assay type: cell-based; details: 24 h treatment; for IC50: Homo sapiens, Caco-2, 24 h
Method: as §1, §2, §3

[3] = Cytotoxicity, LDH assay, Caco-2 cells; assay type: cell-based, human; details: human, Caco-2, 24 h, mean ± SD of three, read-out: Cell viability Caco-2
Method: as §1, §2, §3

[4] = test system: HTB140 human melanoma cells; assay: Cytotoxicity, LDH assay, HTB140 cells; assay type: cell-based; details: Homo sapiens; 24 h treatment, 5–100 μg/mL
Method: as §1, §2, §3

[5] = Cytotoxicity, LDH assay, HTB140 cells; assay type: cell-based, human; details: human, HTB140 melanoma cells, 24 h, mean ± SD of three, read-out: Cell viability HTB140
Method: as §1, §2, §3

[6] = test system: HT29 human colon adenocarcinoma cells; assay: Cytotoxicity, LDH assay, HT29 cells; assay type: cell-based; details: Homo sapiens, HT-29; 24 h treatment, 5–100 μg/mL
Method: as §1, §2, §3

[7] = Cytotoxicity, LDH assay, HT29 cells; assay type: cell-based, human; details: human, HT29 colon adenocarcinoma cells, 24 h, mean ± SD of three, read-out: Cell viability HT29
Method: as §1, §2, §3

[8] = test system: PNT-2 human normal prostate epithelium cells; assay: Cytotoxicity, LDH assay, PNT-2 cells; assay type: cell-based
Method: as §1, §2, §3

[9] = Cytotoxicity, LDH assay, PNT-2 cells; assay type: cell-based, human; details: human, 24 h, mean ± SD of three, read-out: Cell viability PNT-2
Method: as §1, §2, §3

[10] = test system: PC3 human prostate adenocarcinoma cells; assay: Cytotoxicity, LDH assay, PC3 cells; assay type: cell-based; details: 24 h treatment; for IC50: Homo sapiens, PC-3, 24 h
Method: as §1, §2, §3

[11] = Cytotoxicity, LDH assay, PC3 cells; assay type: cell-based, human; details: human, PC3 prostate adenocarcinoma cells, 24 h, mean ± SD of three, read-out: Cell viability PC3
Method: as §1, §2, §3

[12] = Cytotoxicity, LDH assay, A375 cells; assay type: cell-based, human; details: human, A375 malignant melanoma cells, 24 h, mean ± SD of three, read-out: Cell viability A375
Method: as §1, §2, §3

[13] = test system: A375 human malignant melanoma cells; assay: Cytotoxicity, LDH assay, A375 cells; assay type: cell-based; details: Homo sapiens, A-375; 24 h treatment, 5–100 μg/mL
Method: as §1, §2, §3

## CCC(C)C(=O)OC1C=C2C3C(C)C(C)(O)CC(OC(C)=O)C3(C)CCC2(C)C2(C)CC(OC(C)=O)C3C(C)(C)C(O)C(OC(C)=O)CC3(C)C12 (stereo not drawn) [Compound 1, 2α,6β,22α-triacetoxy-11α-(2-methylbutyryloxy)-urs-12-ene-3α,20β-diol]
[1]
  IC50: > 100 µg/mL
[2]; 5–100 μg/mL
  IC50 Caco-2: 35.65 µg/mL
  IC50: 35.7 µg/mL
[2]; value in brackets, footnote d
  IC50: 49.8 µM
[3]; 5 μg/mL
  viability at 24 h, 5 μg/mL: 95.55 ± 0.74%
[3]; 10 μg/mL
  viability at 24 h, 10 μg/mL: 88.7 ± 0.93%
[3]; 20 μg/mL
  viability at 24 h, 20 μg/mL: 78.5 ± 1.94%
[3]; 30 μg/mL
  viability at 24 h, 30 μg/mL: 65.9 ± 1.21%
[3]; 40 μg/mL
  viability at 24 h, 40 μg/mL: 51.1 ± 2.4%
[3]; 50 μg/mL
  viability at 24 h, 50 μg/mL: 35.8 ± 1.32%
[3]; 100 μg/mL
  viability at 24 h, 100 μg/mL: 22.2 ± 1.53%
[4]
  IC50: > 50 µg/mL
[5]; 5 μg/mL
  viability at 24 h, 5 μg/mL: 96.2 ± 1.12%
[5]; 10 μg/mL
  viability at 24 h, 10 μg/mL: 93.82 ± 0.73%
[5]; 20 μg/mL
  viability at 24 h, 20 μg/mL: 87.1 ± 2.09%
[5]; 30 μg/mL
  viability at 24 h, 30 μg/mL: 78.9 ± 2.08%
[5]; 40 μg/mL
  viability at 24 h, 40 μg/mL: 68.4 ± 2.17%
[5]; 50 μg/mL
  viability at 24 h, 50 μg/mL: 59.5 ± 1.4%
[5]; 100 μg/mL
  viability at 24 h, 100 μg/mL: 46.6 ± 2.09%
[6]
  IC50: > 100 µg/mL
[7]; 5 μg/mL
  viability at 24 h, 5 μg/mL: 97.04 ± 0.42%
[7]; 10 μg/mL
  viability at 24 h, 10 μg/mL: 95.49 ± 0.82%
[7]; 20 μg/mL
  viability at 24 h, 20 μg/mL: 90.9 ± 1.37%
[7]; 30 μg/mL
  viability at 24 h, 30 μg/mL: 81.5 ± 1.89%
[7]; 40 μg/mL
  viability at 24 h, 40 μg/mL: 72.5 ± 1.94%
[7]; 50 μg/mL
  viability at 24 h, 50 μg/mL: 64.8 ± 1.69%
[7]; 100 μg/mL
  viability at 24 h, 100 μg/mL: 55.2 ± 1.73%
[8]; 100 µg/mL
  Reduction of viability of PNT-2 cells: 41%
[8]; Homo sapiens, PNT2, 24 h treatment, 5–100 μg/mL
  IC50: > 100 µg/mL
[9]; PNT-2 normal prostate epithelium cells, 10 μg/mL
  viability at 24 h, 10 μg/mL: 96.77 ± 0.6%
[9]; PNT-2 normal prostate epithelium cells, 100 μg/mL
  viability at 24 h, 100 μg/mL: 59 ± 2.2%
[9]; PNT-2 prostate epithelial cells, 5 μg/mL
  viability at 24 h, 5 μg/mL: 96.61 ± 0.53%
[9]; PNT-2 prostate epithelial cells, 20 μg/mL
  viability at 24 h, 20 μg/mL: 94.59 ± 0.9%
[9]; PNT-2 prostate epithelial cells, 30 μg/mL
  viability at 24 h, 30 μg/mL: 91 ± 1.07%
[9]; PNT-2 prostate epithelial cells, 40 μg/mL
  viability at 24 h, 40 μg/mL: 83 ± 1.41%
[9]; PNT-2 prostate epithelial cells, 50 μg/mL
  viability at 24 h, 50 μg/mL: 70.7 ± 2.58%
[10]; 5–100 μg/mL
  IC50 PC3: 41.64 µg/mL
  IC50: 41.6 µg/mL
[10]; value in brackets, footnote d
  IC50: 58.1 µM
[11]; 5 μg/mL
  viability at 24 h, 5 μg/mL: 96.2 ± 1.04%
[11]; 10 μg/mL
  viability at 24 h, 10 μg/mL: 90.7 ± 0.93%
[11]; 20 μg/mL
  viability at 24 h, 20 μg/mL: 83.9 ± 1.67%
[11]; 30 μg/mL
  viability at 24 h, 30 μg/mL: 74.8 ± 1.17%
[11]; 40 μg/mL
  viability at 24 h, 40 μg/mL: 62.6 ± 1.36%
[11]; 50 μg/mL
  viability at 24 h, 50 μg/mL: 45.7 ± 1.85%
[11]; 100 μg/mL
  viability at 24 h, 100 μg/mL: 28.1 ± 2.31%
[12]; 5 μg/mL
  viability at 24 h, 5 μg/mL: 97.23 ± 0.57%
[12]; 10 μg/mL
  viability at 24 h, 10 μg/mL: 96.44 ± 0.92%
[12]; 20 μg/mL
  viability at 24 h, 20 μg/mL: 92.8 ± 1.11%
[12]; 30 μg/mL
  viability at 24 h, 30 μg/mL: 87.2 ± 2.17%
[12]; 40 μg/mL
  viability at 24 h, 40 μg/mL: 79.8 ± 2.02%
[12]; 50 μg/mL
  viability at 24 h, 50 μg/mL: 70.2 ± 1.39%
[12]; 100 μg/mL
  viability at 24 h, 100 μg/mL: 62.6 ± 2.03%
[13]
  IC50: > 100 µg/mL
